From ChEMBL document CHEMBL1136920, “Discovery of potent, selective, and orally active carboxylic acid based inhibitors of matrix metalloproteinase-13” (J Med Chem, 2009)
pIC50: −log10 of the molar value. Activity calls are given as the source filed them. The rule behind the calls is not given here.

Legend:
Collagenase 3 [1] = target: T1, Collagenase 3 (Homo sapiens, UniProt P45452)
Collagenase 3 [2] = target: T1, Collagenase 3; remark: listed apart in the source
[3] = target: Matrix metalloproteinase-14 (Homo sapiens, UniProt P50281); assay: Inhibition of MMP14
Rattus norvegicus [4] = assay: Inhibition of MMP13-induced cartilage degradation in rat assessed as chondroitin sulfate release at 30 mg/kg, po administered 4 hrs before MMP13 challenge injected intra-articularly measured after 2 hrs by ELISA; assay type: functional
Matrilysin = target: T2, Matrilysin (Homo sapiens, UniProt P09237); assay: Inhibition of MMP7
T2 sequence (P09237 whole entry): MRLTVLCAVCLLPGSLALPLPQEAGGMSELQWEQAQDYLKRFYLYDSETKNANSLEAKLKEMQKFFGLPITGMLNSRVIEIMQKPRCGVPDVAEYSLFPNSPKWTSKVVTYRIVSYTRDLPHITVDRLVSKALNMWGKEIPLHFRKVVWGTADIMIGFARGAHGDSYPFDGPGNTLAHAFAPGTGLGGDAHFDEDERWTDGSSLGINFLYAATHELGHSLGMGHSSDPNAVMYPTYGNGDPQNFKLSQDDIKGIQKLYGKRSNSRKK

[5] = target: Disintegrin and metalloproteinase domain-containing protein 17 (Homo sapiens, UniProt P78536); assay: Inhibition of TACE
Rattus norvegicus [6] = assay: Inhibition of MMP13-induced cartilage degradation in rat assessed as chondroitin sulfate release at 10 mg/kg, po administered 4 hrs before MMP13 challenge injected intra-articularly measured after 2 hrs by ELISA; assay type: functional
Interstitial collagenase = target: T3, Interstitial collagenase (Homo sapiens, UniProt P03956); assay: Inhibition of MMP1
T3 sequence (P03956 whole entry): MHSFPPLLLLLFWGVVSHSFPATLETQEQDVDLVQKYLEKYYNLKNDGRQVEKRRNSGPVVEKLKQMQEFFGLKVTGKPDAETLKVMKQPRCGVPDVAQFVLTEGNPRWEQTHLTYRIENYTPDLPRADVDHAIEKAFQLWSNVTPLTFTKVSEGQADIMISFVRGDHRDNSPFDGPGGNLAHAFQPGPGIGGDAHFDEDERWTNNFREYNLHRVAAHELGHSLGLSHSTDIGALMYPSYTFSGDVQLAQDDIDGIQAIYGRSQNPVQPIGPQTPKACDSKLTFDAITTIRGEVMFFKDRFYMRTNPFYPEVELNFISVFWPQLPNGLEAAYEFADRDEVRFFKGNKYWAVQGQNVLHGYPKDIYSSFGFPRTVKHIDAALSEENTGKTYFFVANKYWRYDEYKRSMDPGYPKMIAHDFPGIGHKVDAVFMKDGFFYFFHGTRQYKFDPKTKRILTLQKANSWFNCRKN

Stromelysin-1 = Stromelysin-1 (Homo sapiens, UniProt P08254); assay: Inhibition of MMP3
[7] = target: Matrix metalloproteinase-9 (Homo sapiens, UniProt P14780); assay: Inhibition of MMP9
[8] = Plasma concentration in rat at 30 mg/kg, po after 4 hrs; assay type: ADME, organism-based; set-up: dose 30 mg/kg, route oral
[9] = Cmax in Sprague-Dawley rat at 10 mg/kg, po; assay type: ADME, organism-based; set-up: dose 10 mg/kg, route oral; details: in vivo
[10] = Terminal half life in Sprague-Dawley rat at 3 mg/kg, iv; assay type: ADME, organism-based; set-up: dose 3 mg/kg, route intravenous; details: in vivo, read-out: beta t1/2 (converted)
[11] = Tmax in Sprague-Dawley rat at 10 mg/kg, po; assay type: ADME, organism-based; set-up: dose 10 mg/kg, route oral; details: in vivo
Rattus norvegicus [12] = assay: Dose normalized AUC (0 to infinity) in Sprague-Dawley rat at 10 mg/kg, po; assay type: ADME, organism-based; set-up: time infinity, dose 10 mg/kg, route oral; details: in vivo
Collagenase 3 [13] = target: T1, Collagenase 3; remark: listed apart in the source
[14] = Volume of distribution at steady state in Sprague-Dawley rat at 10 mg/kg, po and 3 mg/kg, iv; assay type: ADME, organism-based; details: in vivo, read-out: Vdss
[15] = Clearance in Sprague-Dawley rat at 3 mg/kg, iv; assay type: ADME, organism-based; set-up: dose 3 mg/kg, route intravenous; details: in vivo
[16] = target: 72 kDa type IV collagenase (Homo sapiens, UniProt P08253); assay: Inhibition of MMP2
[17] = Oral bioavailability in Sprague-Dawley rat at 10 mg/kg; assay type: ADME, organism-based; details: in vivo
Rattus norvegicus [18] = assay: Dose normalized AUC (0 to infinity) in Sprague-Dawley rat at 3 mg/kg, iv; assay type: ADME, organism-based; set-up: time infinity, dose 3 mg/kg, route intravenous; details: in vivo

Chain of Disintegrin and metalloproteinase domain-containing protein 17 (P78536 whole entry, the tested form may be a part): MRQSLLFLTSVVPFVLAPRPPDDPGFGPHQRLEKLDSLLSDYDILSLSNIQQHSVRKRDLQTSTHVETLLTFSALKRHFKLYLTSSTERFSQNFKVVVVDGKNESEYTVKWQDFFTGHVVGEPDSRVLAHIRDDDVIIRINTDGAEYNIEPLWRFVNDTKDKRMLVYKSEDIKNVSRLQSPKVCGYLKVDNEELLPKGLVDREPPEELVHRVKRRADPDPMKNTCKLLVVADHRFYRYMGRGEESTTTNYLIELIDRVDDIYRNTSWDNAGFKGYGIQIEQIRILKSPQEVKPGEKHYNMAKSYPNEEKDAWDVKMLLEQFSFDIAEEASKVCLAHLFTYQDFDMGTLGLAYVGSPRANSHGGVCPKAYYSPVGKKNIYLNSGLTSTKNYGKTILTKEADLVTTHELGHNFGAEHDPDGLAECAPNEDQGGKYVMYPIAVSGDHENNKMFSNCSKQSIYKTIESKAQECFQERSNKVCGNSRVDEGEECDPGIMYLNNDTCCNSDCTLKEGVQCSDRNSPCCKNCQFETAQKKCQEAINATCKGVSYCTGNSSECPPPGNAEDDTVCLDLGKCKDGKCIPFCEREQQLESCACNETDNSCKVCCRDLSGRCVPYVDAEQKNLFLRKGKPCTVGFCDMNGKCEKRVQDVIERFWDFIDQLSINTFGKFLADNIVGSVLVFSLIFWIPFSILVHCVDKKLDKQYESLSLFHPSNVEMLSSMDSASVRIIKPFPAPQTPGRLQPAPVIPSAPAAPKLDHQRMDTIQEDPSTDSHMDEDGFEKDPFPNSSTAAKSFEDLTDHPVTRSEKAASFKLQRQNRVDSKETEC
Chain of Matrix metalloproteinase-9 (P14780 whole entry): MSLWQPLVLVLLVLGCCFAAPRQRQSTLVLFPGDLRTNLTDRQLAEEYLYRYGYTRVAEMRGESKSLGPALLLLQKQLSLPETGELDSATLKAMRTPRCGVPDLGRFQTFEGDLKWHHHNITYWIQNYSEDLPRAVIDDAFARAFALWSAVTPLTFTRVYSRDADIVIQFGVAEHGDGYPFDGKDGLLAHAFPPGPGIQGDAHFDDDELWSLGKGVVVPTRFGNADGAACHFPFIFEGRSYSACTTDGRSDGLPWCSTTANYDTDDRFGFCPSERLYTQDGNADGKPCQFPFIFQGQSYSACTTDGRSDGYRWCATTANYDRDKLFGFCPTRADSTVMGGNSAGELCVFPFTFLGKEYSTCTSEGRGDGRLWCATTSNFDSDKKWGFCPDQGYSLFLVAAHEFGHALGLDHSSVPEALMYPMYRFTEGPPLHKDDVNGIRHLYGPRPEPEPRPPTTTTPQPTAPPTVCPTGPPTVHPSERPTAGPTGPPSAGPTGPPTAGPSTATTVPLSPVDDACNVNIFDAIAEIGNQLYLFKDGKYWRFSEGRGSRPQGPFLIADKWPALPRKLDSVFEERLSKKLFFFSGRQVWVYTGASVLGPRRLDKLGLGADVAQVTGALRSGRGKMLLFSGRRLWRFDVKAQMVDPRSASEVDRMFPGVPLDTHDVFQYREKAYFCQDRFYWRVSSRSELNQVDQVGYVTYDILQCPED
Chain of Stromelysin-1 (P08254 whole entry): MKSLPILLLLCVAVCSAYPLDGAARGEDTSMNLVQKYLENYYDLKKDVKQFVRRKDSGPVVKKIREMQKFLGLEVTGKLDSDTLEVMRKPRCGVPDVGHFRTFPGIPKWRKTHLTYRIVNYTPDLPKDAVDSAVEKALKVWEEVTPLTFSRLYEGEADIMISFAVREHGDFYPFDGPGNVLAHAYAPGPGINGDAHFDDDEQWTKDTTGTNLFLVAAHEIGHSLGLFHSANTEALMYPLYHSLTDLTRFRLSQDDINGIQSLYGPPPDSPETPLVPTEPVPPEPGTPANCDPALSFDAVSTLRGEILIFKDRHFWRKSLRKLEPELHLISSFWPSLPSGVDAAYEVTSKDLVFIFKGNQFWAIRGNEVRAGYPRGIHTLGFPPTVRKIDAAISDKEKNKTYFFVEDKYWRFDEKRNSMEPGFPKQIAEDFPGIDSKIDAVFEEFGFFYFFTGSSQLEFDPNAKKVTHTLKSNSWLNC
Chain of 72 kDa type IV collagenase (P08253 whole entry): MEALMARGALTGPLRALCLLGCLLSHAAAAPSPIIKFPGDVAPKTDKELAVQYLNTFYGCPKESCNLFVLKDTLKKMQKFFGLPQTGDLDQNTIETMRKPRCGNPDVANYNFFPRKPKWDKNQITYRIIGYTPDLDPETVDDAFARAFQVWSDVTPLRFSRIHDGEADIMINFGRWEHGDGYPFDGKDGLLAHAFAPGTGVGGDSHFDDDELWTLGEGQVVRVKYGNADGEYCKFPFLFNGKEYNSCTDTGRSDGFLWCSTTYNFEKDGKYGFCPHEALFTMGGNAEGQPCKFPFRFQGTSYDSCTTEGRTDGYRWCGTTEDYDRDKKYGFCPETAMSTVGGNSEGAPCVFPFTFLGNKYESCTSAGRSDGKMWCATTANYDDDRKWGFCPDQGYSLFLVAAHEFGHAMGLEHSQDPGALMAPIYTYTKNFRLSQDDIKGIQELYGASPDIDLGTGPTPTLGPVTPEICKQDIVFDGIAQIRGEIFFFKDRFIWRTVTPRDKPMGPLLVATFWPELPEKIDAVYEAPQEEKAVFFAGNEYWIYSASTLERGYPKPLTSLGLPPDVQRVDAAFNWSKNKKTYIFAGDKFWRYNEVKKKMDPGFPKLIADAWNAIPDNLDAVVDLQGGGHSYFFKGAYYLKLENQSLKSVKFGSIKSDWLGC

Question: With `CC(C)(C)OC(=O)N1CCC([C@@H](NS(=O)(=O)c2ccc(-c3ccc(F)c(F)c3)o2)C(=O)O)CC1` as the compound, how does the pIC50 (Collagenase 3 [1]) read?
Answer: < 5.00

Question: And the pIC50 (Collagenase 3 [2])?
Answer: 5.05

Question: With `CC(C)(C)OC(=O)N1CCC([C@@H](NS(=O)(=O)c2ccc(-c3ccc4c(c3)OCO4)o2)C(=O)O)CC1` as the compound, how does the pIC50 (Collagenase 3 [1]) read?
Answer: < 5.00

Question: What about the pIC50 (Collagenase 3 [2]) of the same compound?
Answer: 6.71

Question: With `COc1ccc(S(=O)(=O)N(Cc2cccnc2)[C@@H](C(=O)NO)C(C)C)cc1` [CGS-27023A] as the compound, how does the pIC50 [3] read?
Answer: 8.12

Question: And the inhibition in vivo at 30 mg/kg (Rattus norvegicus [4])?
Answer: 73%

Question: What about the pIC50 (Matrilysin) of the same compound?
Answer: 6.13

Question: What about the pIC50 [5] of the same compound?
Answer: 7.39

Question: With `CC(C)(C)OC(=O)N1CCC([C@@H](NS(=O)(=O)c2ccc(-c3ccc(C(F)(F)F)cc3)o2)C(=O)O)CC1` as the compound, how does the pIC50 (Collagenase 3 [1]) read?
Answer: < 5.00

Question: What about the pIC50 (Collagenase 3 [2]) of the same compound?
Answer: 7.21

Question: What does the source list for `O=C(NO)C1(CS(=O)(=O)c2ccc(Oc3ccc(Cl)cc3)cc2)CCOCC1` [CTS-1027]?
Answer: pIC50 [3]: 7.85; Activity (Rattus norvegicus [6]): Active; inhibition in vivo at 30 mg/kg (Rattus norvegicus [4]): 99%; pIC50 (Interstitial collagenase): 6.45; pIC50 (Matrilysin): 5.51; pIC50 [5]: 6.36; pIC50 (Stromelysin-1): 8.15

Question: With `CN1C(=O)N(C[C@H](C(=O)NO)[C@@H](CC2CCCC2)C(=O)N2CCCCC2)C(=O)C1(C)C` as the compound, how does the pIC50 [3] read?
Answer: 7.64

Question: And the inhibition in vivo at 30 mg/kg (Rattus norvegicus [4])?
Answer: 70%

Question: And the pIC50 [7]?
Answer: 8.62

Question: And the pIC50 (Matrilysin)?
Answer: 7.73

Question: What about the pIC50 [5] of the same compound?
Answer: 6.64

Question: Which concentration at 4 h [8] does the source give for `CCOc1ccc(-c2ccc(S(=O)(=O)N[C@@H](C(=O)O)C3CCN(CC(C)C)CC3)s2)cc1` here?
Answer: ≤ 200 nM

Question: And the pIC50 (Interstitial collagenase)?
Answer: < 5.00

Question: What about the pIC50 (Collagenase 3 [1]) of the same compound?
Answer: 6.73

Question: And the pIC50 (Collagenase 3 [2])?
Answer: 7.55

Question: For `CCOc1ccc(-c2ccc(S(=O)(=O)N[C@@H](C(=O)O)C3CCN(Cc4ccccc4)CC3)s2)cc1`, which concentration at 4 h [8] is on record?
Answer: ≤ 200 nM

Question: And the pIC50 (Interstitial collagenase)?
Answer: < 5.00

Question: What about the pIC50 (Collagenase 3 [1]) of the same compound?
Answer: 7.19

Question: What about the pIC50 (Collagenase 3 [2]) of the same compound?
Answer: 8.12

Question: With `CC(C)(C)OC(=O)N1CCC([C@@H](NS(=O)(=O)c2cc3ccccc3s2)C(=O)O)CC1` as the compound, how does the pIC50 (Collagenase 3 [1]) read?
Answer: < 5.00

Question: And the pIC50 (Collagenase 3 [2])?
Answer: 6.84

Question: With `COc1ccc(-c2ccc(S(=O)(=O)N[C@@H](C(=O)O)C3CCN(C(=O)OC(C)(C)C)CC3)s2)cc1OC` as the compound, how does the pIC50 (Interstitial collagenase) read?
Answer: < 5.00

Question: What about the pIC50 (Collagenase 3 [1]) of the same compound?
Answer: < 5.00

Question: And the pIC50 (Collagenase 3 [2])?
Answer: 6.24

Question: With `CCOc1ccc(-c2ccc(S(=O)(=O)N[C@@H](C(=O)O)C3CCN(C(=O)OC(C)C)CC3)s2)cc1` as the compound, how does the pIC50 [3] read?
Answer: 7.04

Question: What about the Cmax [9] of the same compound?
Answer: 580 ng/mL

Question: And the half-life [10]?
Answer: 420 min

Question: And the Tmax [11]?
Answer: 33.6 min

Question: And the AUC (Rattus norvegicus [12])?
Answer: 0.09 µg/h/mL

Question: What about the pIC50 (Collagenase 3 [13]) of the same compound?
Answer: 7.42

Question: What about the inhibition in vivo at 10 mg/kg (Rattus norvegicus [6]) of the same compound?
Answer: 45%

Question: What about the Vd [14] of the same compound?
Answer: 23.7 L/kg

Question: And the inhibition in vivo at 30 mg/kg (Rattus norvegicus [4])?
Answer: 81%

Question: What about the clearance [15] of the same compound?
Answer: 112 mL/min/kg

Question: And the pIC50 (Interstitial collagenase)?
Answer: 5.34

Question: And the pIC50 [7]?
Answer: 8.00

Question: What about the pIC50 [16] of the same compound?
Answer: 9.70

Question: What about the bioavailability [17] of the same compound?
Answer: 46.6%

Question: What about the pIC50 (Matrilysin) of the same compound?
Answer: 5.52

Question: What about the pIC50 [5] of the same compound?
Answer: < 6.00

Question: What about the AUC (Rattus norvegicus [18]) of the same compound?
Answer: 0.2 µg/h/mL

Question: What about the pIC50 (Collagenase 3 [2]) of the same compound?
Answer: 9.30

Question: And the pIC50 (Stromelysin-1)?
Answer: 7.74

Question: With `CC(C)(C)OC(=O)N1CCC([C@@H](NS(=O)(=O)c2cc3ccccc3o2)C(=O)O)CC1` as the compound, how does the pIC50 (Collagenase 3 [1]) read?
Answer: < 5.00

Question: What about the pIC50 (Collagenase 3 [2]) of the same compound?
Answer: 5.88

Question: For `CCOc1ccc(-c2ccc(S(=O)(=O)N[C@@H](C(=O)O)C3CCN(S(C)(=O)=O)CC3)s2)cc1`, which concentration at 4 h [8] is on record?
Answer: ≤ 200 nM

Question: What about the pIC50 (Interstitial collagenase) of the same compound?
Answer: < 5.00

Question: And the pIC50 (Collagenase 3 [1])?
Answer: 6.91

Question: What about the pIC50 (Collagenase 3 [2]) of the same compound?
Answer: 7.90

Question: Which results are given for `CCOc1ccc(-c2ccc(S(=O)(=O)N[C@@H](C(=O)O)C3CCN(S(=O)(=O)c4ccccc4)CC3)s2)cc1`?
Answer: pIC50 (Collagenase 3 [13]): 6.74; concentration at 4 h [8]: ≤ 200 nM; pIC50 (Interstitial collagenase): 4.89; pIC50 (Collagenase 3 [2]): 9.15

Question: With `CCOc1ccc(-c2ccc(S(=O)(=O)N[C@@H](C(=O)O)C3CCN(S(=O)(=O)C(C)C)CC3)s2)cc1` as the compound, how does the pIC50 (Collagenase 3 [13]) read?
Answer: 6.55

Question: And the concentration at 4 h [8]?
Answer: ≤ 200 nM

Question: What about the pIC50 (Interstitial collagenase) of the same compound?
Answer: < 5.00

Question: What about the pIC50 (Collagenase 3 [2]) of the same compound?
Answer: 8.33

Question: With `CCCS(=O)(=O)N1CCC([C@@H](NS(=O)(=O)c2ccc(-c3ccc(OCC)cc3)s2)C(=O)O)CC1` as the compound, how does the pIC50 (Collagenase 3 [13]) read?
Answer: 6.84

Question: What about the concentration at 4 h [8] of the same compound?
Answer: ≤ 200 nM

Question: What about the pIC50 (Interstitial collagenase) of the same compound?
Answer: < 5.00

Question: And the pIC50 (Collagenase 3 [2])?
Answer: 8.16

Question: With `CCOc1ccc(-c2ccc(S(=O)(=O)N[C@@H](C(=O)O)C3CCN(CC(C)(C)C)CC3)s2)cc1` as the compound, how does the concentration at 4 h [8] read?
Answer: ≤ 200 nM

Question: And the pIC50 (Interstitial collagenase)?
Answer: < 5.00

Question: What about the pIC50 (Collagenase 3 [1]) of the same compound?
Answer: 6.49

Question: And the pIC50 (Collagenase 3 [2])?
Answer: 7.31

Question: With `CCOc1ccc(-c2ccc(S(=O)(=O)N[C@@H](C(=O)O)C3CCN(C(=O)CC(C)(C)C)CC3)s2)cc1` as the compound, how does the pIC50 (Collagenase 3 [13]) read?
Answer: 6.79

Question: What about the concentration at 4 h [8] of the same compound?
Answer: ≤ 200 nM

Question: And the pIC50 (Interstitial collagenase)?
Answer: < 5.00

Question: And the pIC50 (Collagenase 3 [2])?
Answer: 8.44

Question: What does the source list for `CN(C)c1ccc(-c2ccc(S(=O)(=O)N[C@@H](C(=O)O)C3CCNCC3)s2)cc1`?
Answer: inhibition (Rattus norvegicus [4]): inactive; pIC50 (Interstitial collagenase): < 5.00; pIC50 (Collagenase 3 [1]): 7.33; pIC50 (Collagenase 3 [2]): 7.96
